Here are results for five compounds from patent US6444646B1, “Use of angiotensin II type 2 receptor agonists in tissue repair” (University of Southern California, priority 1995, dated 2002).

Read-outs that look alike come from different tables or passages of the source. Non-standard residues stand in square brackets, D forms with d. No end group written: not given here. Phe(4-NH2) = Nc1ccc(C[C@H](N)C(=O)O)cc1

For assay [1], the system named is intimal hyperplasia after balloon injury. To be noted: cited from earlier work.
A further assay relates to wound tissue. The following applies: applied to wound tissue; cited from earlier work.
Assay [2] deals with full thickness dermal wounds. The assay can be described thus: rat model for dermal repair (full thickness dermal wounds). The format is in vivo. The following applies: 100 μg/d for 5 days. The method, then:
Female Sprague Dawley rats, 175-200 g, were obtained from Simonsen Laboratories, Gilroy, Calif. On the day of surgery, the rats received intramuscular ketamine/rompum anesthesia prior to preparation for surgery. The rats were shaved and scrubbed with betadine. Two 1.5×1.5 cm full thickness dermal wounds were created on the dorsal surface of the rat. Following excision of the skin, the size of the wound was outlined on a glass slide and the medicament was administered in 100 μl 10% low viscosity carboxymethyl cellulose (Sigma). The test materials were administered in a randomized fashion; all materials were tested at 100 μg/wound. Controls were treated with vehicle only. After administration of the materials, the rats were bandaged and allowed to recover from anesthesia. On days 1-4 after surgery, the rats were treated with an additional 100 μg of peptide formulation. At days 2, 4 ,7 and 9, the area of the skin wounds were measured under methoxyflurane anesthesia (commercially available as Metofane from Pittman-Moore, Mundelein, Ill.). The area of the wound was determined by (1) tracing the wound shape onto graph paper (1×1 mm squares); (2) cutting out the shape; (3) weighing the paper and comparing the weight with a 1.5×1.5 cm paper cutout; and (4) counting the number of squares. In addition, on days 2, 4 and 7, the area of granulation tissue was similarly determined.
As illustrated in FIGS. 1-2, wound closure and the formation of granulation tissue was substantially accelerated relative to the control animals when the test animals were treated with an AT2 agonist. FIG. 1 illustrates the percent of control response in wound closure relative to a vehicle-treated control; FIG. 2 illustrates the percent increase in formation of granulation tissue relative to a vehicle control.

Assay [3] deals with AT2 receptor. The following applies: higher affinity for AT2 than AT1; cited from earlier work.
The subject of assay [4] is AT2 receptor. To be noted: experimental models tested (rabbit vas deferens; NG-108-15); cited from earlier work.
The mark [5] stands for this setting: rat dermal wounds, relative to vehicle-treated control.

Regarding `Cc1cc(Cn2cnc3c2C[C@@H](C(=O)O)N(C(=O)C(c2ccccc2)c2ccccc2)C3)ccc1N(C)C` [PD 123319], in assay [1] (rats, after balloon injury), the “reduction of intimal hyperplasia” value is on record as 73%.

As to `CCCCc1nc(Cl)c(CO)n1Cc1ccc(-c2ccccc2-c2nn[nH]n2)cc1` [losartan], the neointimal formation entry is listed as “effective” in assay [1] (other studies, higher doses) and “ineffective” in assay [1] (similar model, low doses). Moreover, the “decrease of intimal area” value in assay [1] (rats, after balloon injury) is reported as 95%.

For “Asp-Arg-Val-Tyr-Ile-His-Pro-Phe (DRVYIHPF) [angiotensin II, octapeptide present in humans and other species; known pressor agent]”, the “rate of wound healing” value in the assay on wound tissue was “significantly increases”.

With “Asp-Arg-Val-Tyr-Ile-Xaa-Pro-Phe [SEQ ID NO:2] wherein Xaa is p-NH2-Phe (DRVYI[Phe(4-NH2)]PF) [p-aminophenylalanine6-AII]”, in assay [2] (setting [5]), the granulation tissue formation entry is “accelerated” and the wound closure entry is on record as “accelerated”. Besides, the “results in dermal repair compared with AII” value in assay [2] (rat) is reported as “comparable to AII”. Also, in the assay with AT2 receptor [3], the “affinity for AT2 relative to AT1” value was 1000 ×. In addition, the binding characteristics result in the assay on AT2 receptor [4] is “comparable to the AT2 antagonists”.

As to CGP 42112, in assay [1] (similar model, infused perivascularly for 14 days), the neointimal formation entry was “prevented neointimal formation”.
